Data from patent US6608049B2, “Indazoles” (Bayer Aktiengesellschaft, priority 2000, dated 2003).

Assay: T3 promoter assay cell test (luciferase reporter under a thyroid hormone-regulated promoter)
Assay type: cell-based
Settings: Homo sapiens; HepG2 luciferase reporter; costimulator retinolic acid; incubation 48 or 72 hours; four replicates
Experimental: The efficacy of the compounds according to the invention can be tested, for example, in vitro by the T3 promoter assay cell test described below:
The test is carried out using a stably transfected, human HepG2 hepatocarcinoma cell which expresses a luciferase gene under the control of a thyroid hormone-regulated promoter. The vector used for the transfection carries a minimal thymidine kinase promoter ahead of the luciferase gene having a thyroid hormone-responsive element (TRE) which consists of two inverted palindromes of 12 bp each and one 8 bp spacer.
For the test, the cell cultures are inoculated into 96 well plates in Eagle's Minimal Essential Medium with the following additives: glutamine, tricine [N-(tris-(hydroxymethyl)-methyl)-glycine], sodium pyruvate, non-essential amino acids (L-Ala, L-Asn, L-Asp, L-Pro, L-Ser, L-Glu, Gly), insulin, selenium and transferrin. The cultures are grown at 37° C. and under a 10% CO2 atmosphere for 48 hours. Serial dilutions of test substance or reference compound (T3, T4) and costimulator retinolic acid are then added to the test cultures and these are incubated for a further 48 or 72 hours as beforehand. Each substance concentration is tested in four replicates. For the determination of the luciferase induced by T3 or other substances, the cells are then lysed by addition of a Triton- and […] buffer (Promega) and immediately measured luminometrically. The EC50 values of each compound are calculated.

EC50 [nM] | SMILES
13 | CCCCCc1n[nH]c2ccc(Oc3c(C)cc(NC(=O)C(=O)O)cc3C)cc12 [Example 11a, ({3,5-dimethyl-4-[(3-pentyl-1H-indazol-5-yl)oxy]phenyl}amino)(oxo)acetic acid]
190 | CCOC(=O)C(=O)Nc1cc(C)c(Oc2ccc3[nH]nc(C(C)C)c3c2)c(C)c1 [Example 9, Ethyl ({3,5-dimethyl-4-[(3-isopropyl-1H-indazol-5-yl)oxy]phenyl}amino)(oxo)-acetate]
18 | CCCCCc1n[nH]c2ccc(Oc3c(C)cc(NC(=O)CC(=O)OC)cc3C)cc12 [Example 18, Methyl-({3,5-dimethyl-4-[(3-pentyl-1H-indazol-5-yl)oxy]phenyl}amino)-3-(oxo)-propionate]
10 | CCCCCc1n[nH]c2ccc(Oc3c(C)cc(NC(=O)C(=O)OCC)cc3C)cc12 [Example 11, Ethyl ({3,5-dimethyl-4-[(3-pentyl-1H-indazol-5-yl)oxy]phenyl}amino)(oxo)acetate]
115 | CCCc1n[nH]c2ccc(Oc3c(C)cc(N)cc3C)cc12 [Example 4, 5-(4-Amino-2,6-dimethylphenoxy)-3-propyl-1H-indazole]
10 | CCCCCc1n[nH]c2ccc(Oc3c(C)cc(NCC(=O)OCC)cc3C)cc12 [Example 16, Ethyl ({3,5-dimethyl-4-[(3-pentyl-1H-indazol-5-yl)oxy]phenyl}amino)acetate]
